Patent US8445676B2, “Pyrrolotriazine kinase inhibitors” (Bristol-Myers Squibb Company, priority 2008, dated 2013)
Where two headings read alike, the source gives them in different places.

Legend:
Assay type in all cases: biochemical
JAK2 = JAK2 (Homo sapiens, UniProt O60674); assay: JAK2 Tyrosine Kinase Assay
Procedure, shortened: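 Reaction of JAK2 with fluorescent substrate run 60 min at room temperature and stopped with EDTA. Substrate and phosphorylated product separated electrophoretically on a Caliper LabChip. Compounds tested at eleven concentrations in duplicate, with IC50 from non-linear regression.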

JAK3 [1] = molecular target: T1, JAK3 (Homo sapiens, UniProt P52333); assay: JAK3 Tyrosine Kinase Assay; settings: ATP 8 μM; JAK3 2.5 nM; 60 min room temperature
T1 sequence (P52333 1-1124): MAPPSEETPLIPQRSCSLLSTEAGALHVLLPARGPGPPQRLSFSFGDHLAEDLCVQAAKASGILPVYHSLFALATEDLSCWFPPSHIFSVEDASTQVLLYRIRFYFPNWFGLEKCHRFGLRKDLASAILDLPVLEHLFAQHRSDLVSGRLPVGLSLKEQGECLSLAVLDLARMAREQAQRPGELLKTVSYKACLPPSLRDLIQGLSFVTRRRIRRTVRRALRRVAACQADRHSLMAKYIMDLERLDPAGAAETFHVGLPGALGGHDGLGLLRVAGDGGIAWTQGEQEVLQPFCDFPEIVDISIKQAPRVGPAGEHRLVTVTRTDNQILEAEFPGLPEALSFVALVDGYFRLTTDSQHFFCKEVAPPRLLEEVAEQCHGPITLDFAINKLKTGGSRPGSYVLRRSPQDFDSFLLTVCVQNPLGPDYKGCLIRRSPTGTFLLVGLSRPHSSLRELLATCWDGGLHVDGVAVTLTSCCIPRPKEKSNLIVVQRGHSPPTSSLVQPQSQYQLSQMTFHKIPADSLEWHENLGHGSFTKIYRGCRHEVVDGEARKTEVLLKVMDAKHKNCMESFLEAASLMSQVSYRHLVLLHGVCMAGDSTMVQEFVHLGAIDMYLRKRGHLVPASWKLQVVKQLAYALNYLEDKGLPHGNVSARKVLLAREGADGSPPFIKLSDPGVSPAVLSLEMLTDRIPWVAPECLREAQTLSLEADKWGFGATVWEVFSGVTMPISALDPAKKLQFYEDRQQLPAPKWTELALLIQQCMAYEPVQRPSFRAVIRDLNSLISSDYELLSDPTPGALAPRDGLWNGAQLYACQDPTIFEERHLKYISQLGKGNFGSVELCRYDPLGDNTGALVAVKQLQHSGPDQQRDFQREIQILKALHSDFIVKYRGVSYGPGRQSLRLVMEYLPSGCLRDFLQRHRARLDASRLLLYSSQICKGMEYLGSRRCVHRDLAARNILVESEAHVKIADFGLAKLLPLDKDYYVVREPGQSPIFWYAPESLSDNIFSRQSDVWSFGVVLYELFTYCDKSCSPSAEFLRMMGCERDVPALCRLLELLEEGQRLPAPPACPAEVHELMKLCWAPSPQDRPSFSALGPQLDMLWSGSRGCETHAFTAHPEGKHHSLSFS
Procedure: JAK3 Tyrosine Kinase Assay
The assays were performed in V-bottom 384-well plates. […] The reaction was initiated by the combination of JAK3 with substrates and test compounds. The reaction was incubated at room temperature for 60 min. and terminated by adding 45 μl of 35 mM EDTA to each sample. The reaction mixture was analyzed on the Caliper LabChip 3000 by electrophoretic separation of the fluorescent substrate and phosphorylated product. […] The final concentration of reagents in the assays is ATP, 8 μM; JAK3 fluorescent peptide, 1.5 μM; JAK3, 2.5 nM; and DMSO, 1.6%. […] Compounds were dissolved at 10 mM in dimethylsulfoxide (DMSO) and evaluated at eleven concentrations, each in duplicate. IC50 values were derived by non-linear regression analysis.

JAK3 [2] = molecular target: T1, JAK3; assay: JAK3 Tyrosine Kinase Assay; settings: prior-art compound, stated in the background; read-out: IC50 against JAK3
[3] = ATP 30 μM, JAK2 1 nM, 60 min room temperature, read-out: Jak2(IC50)

JAK2, sequence (O60674 whole entry): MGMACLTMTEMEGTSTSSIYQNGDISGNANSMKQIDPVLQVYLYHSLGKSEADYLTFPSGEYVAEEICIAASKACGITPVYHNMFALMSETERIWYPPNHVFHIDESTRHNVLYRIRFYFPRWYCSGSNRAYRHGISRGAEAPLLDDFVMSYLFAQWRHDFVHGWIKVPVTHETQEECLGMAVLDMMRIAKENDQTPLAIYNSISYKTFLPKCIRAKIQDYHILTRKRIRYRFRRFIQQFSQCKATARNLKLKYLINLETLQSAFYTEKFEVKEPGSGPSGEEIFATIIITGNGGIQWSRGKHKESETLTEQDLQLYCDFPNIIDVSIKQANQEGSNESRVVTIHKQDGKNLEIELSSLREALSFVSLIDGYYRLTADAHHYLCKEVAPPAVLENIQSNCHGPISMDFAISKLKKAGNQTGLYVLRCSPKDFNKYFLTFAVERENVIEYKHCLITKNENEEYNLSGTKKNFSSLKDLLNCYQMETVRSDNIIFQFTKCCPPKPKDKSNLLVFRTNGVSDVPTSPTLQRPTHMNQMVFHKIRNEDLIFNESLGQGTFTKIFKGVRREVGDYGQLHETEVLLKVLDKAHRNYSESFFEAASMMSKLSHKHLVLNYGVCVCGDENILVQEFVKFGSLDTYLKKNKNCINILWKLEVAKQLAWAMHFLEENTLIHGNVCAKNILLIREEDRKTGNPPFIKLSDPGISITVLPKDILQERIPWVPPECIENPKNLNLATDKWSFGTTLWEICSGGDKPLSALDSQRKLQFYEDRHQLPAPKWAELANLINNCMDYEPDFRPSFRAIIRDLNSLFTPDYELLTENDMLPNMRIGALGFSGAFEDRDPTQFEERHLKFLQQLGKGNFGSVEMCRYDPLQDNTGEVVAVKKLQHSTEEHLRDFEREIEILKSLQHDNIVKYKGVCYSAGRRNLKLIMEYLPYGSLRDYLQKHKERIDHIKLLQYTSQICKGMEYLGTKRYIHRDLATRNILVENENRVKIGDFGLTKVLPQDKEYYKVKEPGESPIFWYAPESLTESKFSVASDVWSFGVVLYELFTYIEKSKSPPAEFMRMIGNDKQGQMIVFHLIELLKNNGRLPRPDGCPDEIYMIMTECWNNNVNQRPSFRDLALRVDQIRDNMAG

| SMILES | IC50 (JAK2; [3]) [nM] | IC50 (JAK3 [1]) [nM] | IC50 (JAK2; prior-art compound, stated in the background, read-out: IC50 against JAK2) [nM] | IC50 (JAK3 [2]) [nM] |
| --- | --- | --- | --- | --- |
| CO[C@@H](C(=O)N1CCN(c2nc(Nc3cc(C)[nH]n3)c3cccn3n2)CC1)c1ccccc1 [Example 110, 2-(4-((2R)-2-methoxy-2-phenylacetyl)-1-piperazinyl)-N-(5-methyl-1H-pyrazol-3-yl)pyrrolo[2,1-f][1,2,4]triazin-4-amine] | 1 | 20 |  |  |
| Cc1cc(Nc2nc(N3CCN(C(=O)c4ccc(F)cc4)CC3)nn3cccc23)n[nH]1 [Example 24, 2-(4-(4-fluorobenzoyl)-1-piperazinyl)-N-(5-methyl-1H-pyrazol-3-yl)pyrrolo[2,1-f][1,2,4]triazin-4-amine] | 1.14 | 5.98 |  |  |
| Cc1cc(Nc2nc(N3CCN(C(=O)Cc4ccc(C(F)(F)F)cc4C(F)(F)F)CC3)nn3cccc23)n[nH]1 [Example 134, 2-(4-((2,4-bis(trifluoromethyl)phenyl)acetyl)-1-piperazinyl)-N-(5-methyl-1H-pyrazol-3-yl)pyrrolo[2,1-f] [1,2,4]triazin-4-amine] | 0.887 | 8.41 |  |  |
| Cc1cnc(C(=O)N2CCN(c3nc(Nc4cc(C)[nH]n4)c4cccn4n3)CC2)cn1 [Example 32, 2-(4-((5-methyl-2-pyrazinyl)carbonyl)-1-piperazinyl)-N-(5-methyl-1H-pyrazol-3-yl)pyrrolo[2,1-f] [1,2,4]triazin-4-amine] | 7.16 | 120 |  |  |
| Cc1cc(Nc2nc(N3CCN(C(=O)c4cccc(C#N)c4)CC3)nn3cccc23)n[nH]1 [Example 66, 3-((4-(4-((5-methyl-1H-pyrazol-3-yl)amino)pyrrolo[2,1-f][1,2,4]triazin-2-yl)-1-piperazinyl)carbonyl)benzonitrile] | 0.898 | 10 |  |  |
| Cc1cc(Nc2nc(N3CCN(C(=O)c4ccccc4-c4ccccc4)CC3)nn3cccc23)n[nH]1 [Example 200, 2-(4-(2-biphenylylcarbonyl)-1-piperazinyl)-N-(5-methyl-1H-pyrazol-3-yl)pyrrolo[2,1-f][1,2,4]triazin-4-amine] | 7.25 | 120 |  |  |
| Cc1cc(Nc2nc(N3CCN(C(=O)c4ccccc4S(C)(=O)=O)CC3)nn3cccc23)n[nH]1 [Example 193, N-(5-methyl-1H-pyrazol-3-yl)-2-(4-(2-(methylsulfonyl)benzoyl)-1-piperazinyl)pyrrolo[2,1-f][1,2,4]triazin-4-amine] | 130 | 3050 |  |  |
| Cc1cc(Nc2nc(N3CCN(C(=O)Cc4ccc(OC(F)(F)F)cc4)CC3)nn3cccc23)n[nH]1 [Example 91, N-(5-methyl-1H-pyrazol-3-yl)-2-(4-((4-(trifluoromethoxy)phenyl)acetyl)-1-piperazinyl)pyrrolo[2,1-f][1,2,4]triazin-4-amine] | 0.697 | 20 |  |  |
| Cc1cc(Nc2nc(N3CCNCC3)nn3cccc23)[nH]n1 [Example 74 of the publication, reference compound] |  |  | 31 | 460 |
| Cc1cc(Nc2nc(N3CCN(C(=O)Cc4ccc(F)cc4F)CC3)nn3cccc23)n[nH]1 [Example 37, 2-(4-((2,4-difluorophenyl)acetyl)-1-piperazinyl)-N-(5-methyl-1H-pyrazol-3-yl)pyrrolo[2,1-f][1,2,4]triazin-4-amine] | 7.73 | 160 |  |  |
| Cc1cc(Nc2nc(N3CCN(C(=O)C(C)(C)C)CC3)nn3cccc23)n[nH]1 [Example 168, 2-(4-(2,2-dimethylpropanoyl)-1-piperazinyl)-N-(5-methyl-1H-pyrazol-3-yl)pyrrolo[2,1-f][1,2,4]triazin-4-amine] | 7.07 | 210 |  |  |
